In the NIST ThermoML archive (doi:10.1016/j.jct.2010.06.009):

Assay: activity coefficient (dimensionless); of the first substance listed, at infinite dilution; xn = mol fraction of the nth substance listed
Details: 101 kPa, Liquid, Chromatography, x1 = 0

CC1CCCCC1 [methylcyclohexane] + CCCCC[n+]1ccccc1.O=S(=O)([N-]S(=O)(=O)C(F)(F)F)C(F)(F)F
Details	activity coefficient
303.1 K	10.2
312.7 K	9.39
323.4 K	8.48
333.3 K	7.64
343.3 K	6.84
353.3 K	6.08

CC1CCCCC1 [methylcyclohexane] + CCCC[n+]1ccccc1.O=S(=O)([N-]S(=O)(=O)C(F)(F)F)C(F)(F)F
Details	activity coefficient
302.8 K	14.1
312.4 K	12.7
323.2 K	11.6
333.1 K	10.1
343.3 K	8.44
353.4 K	7.2

CC1CCCCC1 [methylcyclohexane] + CC[n+]1ccccc1.O=S(=O)([N-]S(=O)(=O)C(F)(F)F)C(F)(F)F
Details	activity coefficient
302.8 K	17.8
313.3 K	15
323.1 K	12.8
333 K	10.8
342.9 K	9.01
353 K	7.49

CCCCCCCCC [nonane] + CCCCC[n+]1ccccc1.O=S(=O)([N-]S(=O)(=O)C(F)(F)F)C(F)(F)F
Details	activity coefficient
303.2 K	36
312.7 K	33.3
323.4 K	30.2
333.3 K	27.3
343.3 K	24.2
353.3 K	21.4

CCCCCCCCC [nonane] + CCCC[n+]1ccccc1.O=S(=O)([N-]S(=O)(=O)C(F)(F)F)C(F)(F)F
Details	activity coefficient
303.1 K	52.3
312.6 K	50
323.3 K	45.6
333.3 K	38.6
343.3 K	33.3
353.4 K	28.1

CCCCCCCCC [nonane] + CC[n+]1ccccc1.O=S(=O)([N-]S(=O)(=O)C(F)(F)F)C(F)(F)F
Details	activity coefficient
302.8 K	86.1
313.3 K	74.3
323.1 K	63.4
333 K	51.7
342.9 K	42.2
353 K	33.8

C=CCCCCCC [oct-1-ene] + CCCCC[n+]1ccccc1.O=S(=O)([N-]S(=O)(=O)C(F)(F)F)C(F)(F)F
Details	activity coefficient
303 K	14.2
312.6 K	13.2
322.6 K	12.2
333.4 K	11
343.4 K	9.95
353.4 K	9.08

C=CCCCCCC [oct-1-ene] + CCCC[n+]1ccccc1.O=S(=O)([N-]S(=O)(=O)C(F)(F)F)C(F)(F)F
Details	activity coefficient
302.5 K	22.3
313 K	19.7
323.2 K	18.4
332.8 K	15.7
343 K	13.6
352.9 K	11.9

C=CCCCCCC [oct-1-ene] + CC[n+]1ccccc1.O=S(=O)([N-]S(=O)(=O)C(F)(F)F)C(F)(F)F
Details	activity coefficient
302.6 K	36.6
313.2 K	31.5
323.2 K	27.2
332.8 K	23.7
342.9 K	19.8
353 K	16.7

CCCCCCCC [octane] + CCCCC[n+]1ccccc1.O=S(=O)([N-]S(=O)(=O)C(F)(F)F)C(F)(F)F
Details	activity coefficient
303.2 K	25
312.7 K	22.8
323.4 K	20.3
333.3 K	18
343.3 K	15.7
353.3 K	13.7

CCCCCCCC [octane] + CCCC[n+]1ccccc1.O=S(=O)([N-]S(=O)(=O)C(F)(F)F)C(F)(F)F
Details	activity coefficient
302.7 K	35.4
312.5 K	32.2
323.2 K	29
333.3 K	23.9
343.3 K	20.4
353.4 K	16.8

CCCCCCCC [octane] + CC[n+]1ccccc1.O=S(=O)([N-]S(=O)(=O)C(F)(F)F)C(F)(F)F
Details	activity coefficient
302.8 K	52.9
313.3 K	43.5
323.1 K	36
333 K	29.1
342.9 K	23.4
353 K	18.5

CCCCC [pentane] + CCCCC[n+]1ccccc1.O=S(=O)([N-]S(=O)(=O)C(F)(F)F)C(F)(F)F
Details	activity coefficient
303.3 K	5.03
312.7 K	4.17
323.4 K	3.42
333.3 K	2.89
343.3 K	2.41
353.3 K	2.07

CCCCC [pentane] + CCCC[n+]1ccccc1.O=S(=O)([N-]S(=O)(=O)C(F)(F)F)C(F)(F)F
Details	activity coefficient
302.8 K	5.66
312.4 K	4.83
323.2 K	3.92
333 K	3.44
343.4 K	2.66
353.4 K	2.24

CCCCC [pentane] + CC[n+]1ccccc1.O=S(=O)([N-]S(=O)(=O)C(F)(F)F)C(F)(F)F
Details	activity coefficient
302.7 K	5.79
313.3 K	4.5
323 K	3.59
333 K	2.92
342.9 K	2.36
352.9 K	1.95

CCCO [propan-1-ol] + CCCCC[n+]1ccccc1.O=S(=O)([N-]S(=O)(=O)C(F)(F)F)C(F)(F)F
Details	activity coefficient
302.8 K	2.53
313.6 K	2.23
323.4 K	2.02
333.3 K	1.84
343.3 K	1.65
353.3 K	1.49

CCCO [propan-1-ol] + CCCC[n+]1ccccc1.O=S(=O)([N-]S(=O)(=O)C(F)(F)F)C(F)(F)F
Details	activity coefficient
303.4 K	3.31
313.3 K	2.82
323.2 K	2.52
333.1 K	2.25
343.1 K	2.03
353 K	1.84

CCCO [propan-1-ol] + CC[n+]1ccccc1.O=S(=O)([N-]S(=O)(=O)C(F)(F)F)C(F)(F)F
Details	activity coefficient
302.5 K	3.56
313.1 K	3.18
323 K	2.85
332.9 K	2.57
342.9 K	2.29
353 K	2.06

Cc1ccccc1 [toluene] + CCCCC[n+]1ccccc1.O=S(=O)([N-]S(=O)(=O)C(F)(F)F)C(F)(F)F
Details	activity coefficient
303.1 K	1.28
312.8 K	1.3
323.3 K	1.33
333.3 K	1.34
343.3 K	1.36
353.5 K	1.36

Cc1ccccc1 [toluene] + CCCC[n+]1ccccc1.O=S(=O)([N-]S(=O)(=O)C(F)(F)F)C(F)(F)F
Details	activity coefficient
302.8 K	1.8
312.6 K	1.82
323.3 K	1.83
333.2 K	1.83
343.2 K	1.85
353.3 K	1.86

Cc1ccccc1 [toluene] + CC[n+]1ccccc1.O=S(=O)([N-]S(=O)(=O)C(F)(F)F)C(F)(F)F
Details	activity coefficient
303.6 K	2.08
313.1 K	2.09
323.2 K	2.1
333.2 K	2.11
343 K	2.12
353.3 K	2.13
